In brackets after ≈: the same amount, converted by molar mass. Activity calls are given as the source filed them. No cut-off for these calls is given here.
Experiments:
PBMC = experiment: Inhibition of IL2 production in PHA-stimulated human PBMC after 24 hrs by ELISA
Blood = experiment: Inhibition of IL2 production in PHA-stimulated human whole blood after 24 hrs by ELISA
[1] = Solubility in water; format: physicochemical
[2] = Apparent permeability across human Caco-2 cells; format: ADME, cell-based
Mus musculus [3] = experiment: Suppression of anti-dinitrophenyl-coupled IgE-induced passive cutaneous anaphylaxis reaction in po dosed ICR mouse administered 1 hr before antigen challenge relative to control; format: functional, organism-based
Mus musculus [4] = experiment: Plasma concentration in mouse at 3 mg/kg, po; format: ADME, organism-based; parameters: dose 3 mg/kg, route oral; details: in vivo
Mus musculus [5] = experiment: Plasma concentration in mouse at 10 mg/kg, po; format: ADME, organism-based; parameters: dose 10 mg/kg, route oral; details: in vivo
Mus musculus [6] = experiment: Plasma concentration in mouse at 30 mg/kg, po; format: ADME, organism-based; parameters: dose 30 mg/kg, route oral; details: in vivo
Mus musculus [7] = experiment: Plasma concentration in mouse at 100 mg/kg, po; format: ADME, organism-based; parameters: dose 100 mg/kg, route oral; details: in vivo
Mus musculus [8] = experiment: Suppression of concanavalin A-induced IL2 production in po dosed ICR mouse administered 1 hr before concanavalin A challenge relative to control
[9] = target: T1, Tyrosine-protein kinase ZAP-70 (Homo sapiens, UniProt P43403); experiment: Inhibition of human ZAP70 expressed in Sf9 cells
T1 sequence (P43403 whole entry): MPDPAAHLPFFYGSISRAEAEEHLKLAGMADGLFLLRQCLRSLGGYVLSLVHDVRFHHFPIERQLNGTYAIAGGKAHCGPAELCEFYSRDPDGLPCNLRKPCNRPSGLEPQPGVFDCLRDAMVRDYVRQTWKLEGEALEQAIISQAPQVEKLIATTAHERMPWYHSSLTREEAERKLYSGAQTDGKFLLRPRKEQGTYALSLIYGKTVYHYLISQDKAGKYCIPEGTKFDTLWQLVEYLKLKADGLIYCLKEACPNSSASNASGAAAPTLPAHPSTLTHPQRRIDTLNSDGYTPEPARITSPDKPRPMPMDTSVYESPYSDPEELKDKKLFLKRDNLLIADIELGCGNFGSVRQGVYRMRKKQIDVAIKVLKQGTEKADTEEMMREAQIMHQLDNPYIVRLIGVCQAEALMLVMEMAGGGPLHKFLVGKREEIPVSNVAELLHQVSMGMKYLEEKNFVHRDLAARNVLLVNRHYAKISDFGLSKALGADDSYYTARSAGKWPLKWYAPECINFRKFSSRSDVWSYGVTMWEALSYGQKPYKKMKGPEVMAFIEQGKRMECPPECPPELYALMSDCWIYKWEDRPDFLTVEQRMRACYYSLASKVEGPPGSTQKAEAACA

[10] = target: Tyrosine-protein kinase SYK (Homo sapiens, UniProt P43405)
Description: Inhibition of human Syk expressed in Sf9 cells

SMILES	IC50 (PBMC) [µM]	IC50 (Blood) [µM]	Papp [2] [×10⁻⁶ cm/s]	Activity (Mus musculus [8])	further results
CN[C@@H]1C[C@H]2O[C@@](C)([C@@H]1OC)n1c3ccccc3c3c4c(c5c6ccccc6n2c5c31)C(=O)NC4 [STAUROSPORINE]	0.016	–	–	–	–
Cc1cc(C)cc(Nc2nc(N[C@H]3CCCC[C@H]3N)n3ccnc3c2C(N)=O)c1 (relative stereo)	0.2	1	–	–	–
COc1cc(Nc2nc(N[C@H]3CCCC[C@H]3N)n3ccnc3c2C(N)=O)cc(OC)c1 (relative stereo)	0.058	0.28	3.33	Dose-dependent effect	solubility [1]: 930 µg/mL (≈ 2190 µM); Activity (Mus musculus [3]): Dose-dependent effect; Cp (Mus musculus [4]): 40 ng/mL; Cp (Mus musculus [5]): 191 ng/mL; Cp (Mus musculus [6]): 770 ng/mL; Cp (Mus musculus [7]): 4031 ng/mL
COc1cc(Nc2nc(N[C@H]3CCCC[C@H]3N)n3cc(-c4ccccc4)nc3c2C(N)=O)cc(OC)c1	0.2	2	0.43	–	–
NC(=O)c1c(Nc2cc(F)cc(F)c2)nc(N[C@H]2CCCC[C@H]2N)n2ccnc12 (relative stereo)	0.15	3	–	–	–
COc1ccccc1Nc1nc(N[C@H]2CCCC[C@H]2N)n2ccnc2c1C(N)=O (relative stereo)	–	–	–	–	IC50 [9]: > 10 µM; IC50 [10]: > 10 µM
COc1cc(Nc2nc(N[C@H]3CCCC[C@H]3N)n3ncnc3c2C(N)=O)cc(OC)c1	0.076	0.48	0.33	inactive	–
COc1cc(Nc2nc(N[C@H]3CCCC[C@H]3N)n3cnnc3c2C(N)=O)cc(OC)c1	0.046	0.44	0.01	inactive	Cp (Mus musculus [5]): 28.4 ng/mL; Cp (Mus musculus [6]): 26.5 ng/mL; Cp (Mus musculus [7]): 45.2 ng/mL
